# Key:
# [1] = tested on: P-gp (human MDR1); test: In vitro permeability test in MDR1-MDCK II cells (bidirectional transport); type: in vitro ADME, canine; details: dog; for Papp A→B at 150 min, 2 μM: A to B, read-out: Penetration rate A to B; for Papp B→A at 150 min, 2 μM: B to A, read-out: Penetration rate B to A
# Text: (§1) The study used MDR1-MDCK II cells authorized by Piet Borst laboratory of the Netherlands Cancer Institute, which are a kind of Madin-Darby canine kidney cells transfected with human multi-drug resistance gene (MDR1). The cells can stably express the efflux transporter P glycoprotein (P-gp), so they are suitable for screening P-gp substrates or inhibitors, and predict that the compounds have high efflux barrier permeability such as duodenum, blood-brain barrier, hepatocyte nucleus and renal unit. We used the 5th to 35th generation MDR1-MDCK II cells for permeability study.
# (§2) MDR1-MDCK II cells were cultured with α-MEM medium (α-Minimum Essential Media) under the conditions of 37±1° C., 5% CO2 and saturated relative humidity. After that, the cells were inoculated in a BD Transwell-96-well plate with an inoculation density of 2.3×10^5 cells/cm^2, and then the cells were placed in a carbon dioxide incubator for 4-7 days and used for transport experiments. The preparation method of α-MEM medium was as follows: the liquid nutrient base was prepared by dissolving powder (α-MEM powder from Gibco, Cat #: 11900) in pure water, and L-glutamine and NaHCO3 were added. 10% FBS (fetal bovine serum), 1% PS (dual antibiotic) and 1% NEAA were added to make it a complete medium when using.
# (§3) Fenoterol and propranolol were tested at a concentration of 2 μM, administered unidirectionally (A-B direction), and duplicated in two wells.
# (§4) The solution to be used was pre-incubated in a 37±1° C. water bath for 30 minutes. The dosing solution and the receiving solution were added to the corresponding well positions of the cell plate (75 and 250 μL for each top and bottom well, respectively) to start the bidirectional transport experiment. After loading, the cell plates were placed in an incubator at 37±1° C., 5% CO2 and saturated relative humidity for 150 minutes.
# (§5) After vortexing, all samples were centrifuged at 3,220 g for 10 minutes. An appropriate volume of supernatant was transferred to the sample analysis plate, and analyzed by LC/MS/MS. If samples were not analyzed immediately after sealing, they were store at 2-8° C.
# (§6) After the transport experiment was completed, the integrity of MDR1-MDCK II cells was tested using Lucifer Yellow Rejection Assay. After incubating the fluorescent yellow solution for 30 minutes, the fluorescent yellow samples were collected, and the relative fluorescence unit (RFU) of the fluorescent yellow in the sample was detected at 425/528 nm (excitation/emission) by the 2e plate reader.
# (§7) Semi-quantitative analysis was used for the test products AZD1775 (or the compound of the present invention), the control products fenoterol, propranolol and digoxin. The ratio of the peak area of the analyte to the internal standard was used as the concentration of the reference substance.
# [2] = tested on: CT26 mouse colon cancer transplanted tumor; test: In vivo anti-tumor efficacy, CT26 colon cancer transplanted tumor model; design: species or system BALB/c nude mice; details: 30 mg/kg twice daily, after administration for 18 days
# Experimental: (3) In vivo anti-tumor efficacy of the compounds on CT26 mouse colon cancer animal transplanted tumor model
# Experimental method: The selected experimental animal was BALB/c nude mice, 7 weeks old, weighing 16-20 grams, female.
# Cells: Mouse colon cancer CT26 cells (the Cell Bank of Typical Culture Preservation Committee of the Chinese Academy of Sciences) were cultured in monolayer in vitro. The culture conditions were RPMI-1640 medium containing 10% fetal bovine serum and 37° C. 5% CO2 incubator. Conventional digestion treatment with trypsin-EDTA was performed twice a week for passaging. When the cells were in the exponential growth phase and the saturation was 80%-90%, the cells were collected, counted, and inoculated. 0.1 mL DPBS (containing 3×10^5 CT26 cells) was subcutaneously inoculated into the right back of each mouse. When the average tumor volume reached 50-70 mm^3, randomized administration was performed according to tumor volume. Dosage: 30 mg/kg twice daily.
# (§8) The experimental index is to investigate whether the tumor growth is inhibited, delayed or cured. The diameter of the tumor was measured with vernier calipers twice a week. The antitumor efficacy of the compound was evaluated by TGI (%) or relative tumor proliferation rate T/C (%). TGI (%) reflects the tumor growth inhibition rate.
# After the final administration for 18 days, the experimental results are as follows: […]
# [3] = tested on: human colon cancer LoVo cell subcutaneous xenograft tumor; test: In vivo pharmacodynamic study, LoVo subcutaneous xenograft tumor model; design: species or system BALB/c nude mice; details: 40 mg/kg twice daily, after administration for 16 days
# Experimental: (1) In vivo pharmacodynamic study of the compounds on human colon cancer LoVo cell subcutaneous xenograft tumor BALB/c nude mouse model
# Experimental method: The selected experimental animal (provided by Shanghai Xipu'er-bikai Experimental Animal Co., Ltd.) were BALB/c nude mice, 6-8 weeks old, weighing 18-22 grams.
# Human colon cancer LoVo cells were cultured in monolayer in vitro. The culture conditions were Ham's F-12 medium containing 10% fetal bovine serum, 100 U/mL penicillin, 100 μg/mL streptomycin and 2 mM glutamine, 37° C., 5% CO2 culture. Conventional digestion treatment with trypsin-EDTA was performed twice a week for passaging. When the cell saturation was 80%-90%, the cells were collected, counted, and inoculated. 0.1 mL (10×10^6) LoVo cells were subcutaneously inoculated into the right back of each nude mouse. When the average tumor volume reached 213 mm^3, they were divided into groups and the drug administration was started. Dosage: 40 mg/kg twice daily. The experimental index is to investigate whether the tumor growth is inhibited, delayed or cured. The diameter of the tumor was measured with vernier calipers twice a week. The calculation formula of tumor volume is: V=0.5a×b^2, a and b represent the long and short diameters of the tumor, respectively.
# The antitumor efficacy of the compound was evaluated by TGI (%) or relative tumor proliferation rate T/C (%). […]
# [4] = tested on: human pancreatic cancer BxPC-3 subcutaneously transplanted tumor; test: In vivo pharmacodynamic study, BxPC-3 subcutaneously transplanted tumor model; design: species or system BALB/c nude mice; details: BxPC-3 xenograft, 25 mg/kg once a day, after administration for 27 days
# Experimental: (2) In vivo pharmacodynamic study of the compound on human pancreatic cancer BxPC-3 BALB/c nude mouse subcutaneously transplanted tumor model
# Experimental method: The selected experimental animal was BALB/c nude nude mice, 6-8 weeks old, weighing 18-22 grams.
# The 10th generation of BxPC-3 cells were cultured in monolayer in vitro. The culture conditions were RPMI 1640 medium (manufacturer: gibco, article number: 22400-089) containing 10% fetal bovine serum, 100 U/mL penicillin and 100 μg/mL streptomycin, 37° C. 5% CO2 culture, passage was performed for 4 times. The passaging method was conventional digestion treatment with trypsin-EDTA twice a week. When the cell saturation reached 80%-90%, the cells were digested with trypsin-EDTA, counted, and resuspended in PBS at a density of 5×10^7 cells/mL. Each animal was inoculated with 0.1 mL (5×10^6) BxPC-3 cells in the right back. When the average tumor volume reached 153 mm^3, they were randomly divided into groups according to the tumor volume and the drug administration was started. Dosage: 25 mg/kg, once a day.
# as §8, with “rate. […]” for “rate.”
# [5] = tested on: P-gp (MDR1); test: In vitro permeability test in MDR1-MDCK II cells (bidirectional transport); type: in vitro ADME, canine; details: dog
# Text: as §1, §2, §3, §4, §5, §6, §7
# [6] = Pharmacokinetic evaluation in plasma after single intravenous and single oral administration; type: in vivo; details: mouse, female Balb/c Nude mice
# Experimental: Twelve mice (provided by Lingchang Biotech) were randomly divided into two groups, 6 females in each group, and samples were collected by cross blood collection. […] In the intravenous group, plasma samples were collected at 9 time points of 5 minutes, 15 minutes, 30 minutes, 1 hour, 2 hours, 4 hours, 6 hours, 8 hours, and 24 hours after administration; in the oral group, plasma samples were collected at 8 time points of 15 minutes, 30 minutes, 1 hour, 2 hours, 4 hours, 6 hours, 8 hours, and 24 hours after administration.
# [7] = target: T1, Wee1 (Homo sapiens, UniProt P30291); test: In vitro enzymatic inhibitory activity, Wee1 kinase (Eurofins, [γ-33P]-ATP filter assay); type: biochemical; details: 10 μM [γ-33P]-ATP, 40 min at room temperature
# T1 construct: purchased Eurofins
# T1 sequence (P30291 whole entry): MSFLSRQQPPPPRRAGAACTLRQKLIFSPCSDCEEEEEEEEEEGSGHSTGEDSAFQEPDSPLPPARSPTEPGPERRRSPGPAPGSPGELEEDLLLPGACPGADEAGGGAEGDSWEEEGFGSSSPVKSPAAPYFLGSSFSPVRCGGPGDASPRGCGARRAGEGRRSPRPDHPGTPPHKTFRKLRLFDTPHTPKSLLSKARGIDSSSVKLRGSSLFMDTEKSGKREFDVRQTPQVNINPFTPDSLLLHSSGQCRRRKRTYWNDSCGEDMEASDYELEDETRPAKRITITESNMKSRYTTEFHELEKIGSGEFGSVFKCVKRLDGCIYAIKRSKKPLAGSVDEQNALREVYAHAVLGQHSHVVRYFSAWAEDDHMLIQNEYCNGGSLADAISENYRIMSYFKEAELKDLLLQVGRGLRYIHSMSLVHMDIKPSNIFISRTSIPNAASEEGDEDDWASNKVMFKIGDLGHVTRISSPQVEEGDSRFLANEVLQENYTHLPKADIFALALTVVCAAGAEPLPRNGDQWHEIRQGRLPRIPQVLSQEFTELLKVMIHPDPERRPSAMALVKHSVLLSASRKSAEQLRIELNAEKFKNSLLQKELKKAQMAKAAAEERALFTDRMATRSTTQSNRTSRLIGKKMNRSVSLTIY
# Experimental: The experimental tests were conducted at Eurofins, and the results were provided by the company.
# After adding the mixed solution of Mg^2+ and ATP, the reaction started and the reaction solution was incubated at room temperature for 40 min. 3% phosphate buffer was added to stop the reaction. 10 μL of the reaction solution was filtered on a continuous filter P30, washed three times with 75 mM phosphate buffer, once with methanol, and 5 minutes each time. After drying, the value was read by scintillation counting method.
"Papp A→B at 150 min, 2 μM [1]","Papp B→A at 150 min, 2 μM [1]","efflux ratio at 150 min, 2 μM [5]","clearance ([6]; 1 mg/kg intravenous, 10 mg/kg oral study, read-out: Clearance rate)","AUC ([6]; 1 mg/kg intravenous, 10 mg/kg oral study, read-out: Concentration integral AUC)","half-life ([6]; 1 mg/kg intravenous, 10 mg/kg oral study, read-out: Half-life T1/2 (converted))","bioavailability ([6]; po, 10 mg/kg by gavage vs 1 mg/kg intravenous, read-out: Bioavailability F)",IC50 [7],Structure (SMILES),TGI (%) [2],TGI (%) [3],TGI (%) [4]
2.83 ×10⁻⁶ cm/s,29.3 ×10⁻⁶ cm/s,,,,,,,"C=CCn1c(=O)c2cnc(Nc3ccc(N4CCN(C)CC4)cc3)nc2n1-c1cccc(C(C)(C)O)n1 [AZD1775, reference compound]",66.43%,26.73%,24.3%
4.55 ×10⁻⁶ cm/s,17.4 ×10⁻⁶ cm/s,3.82,33.5 mL/min/kg,6.04 µM·h,1.69 h,62.4%,29 nM,"CN1CCN(c2ccc(Nc3ncc4c(=O)n5n(c4n3)-c3cccc(n3)C(C)(O)CC/C=C\C5)cc2)CC1 (single isomer, unassigned) [Compound 1]",93.38%,84.74%,73.3%
